Calls of active or inactive are those of the source. The calls are words filed in the database; no cut-off is given here.
Legend:
Translocator protein = Translocator protein (Rattus norvegicus, UniProt P16257); test: Displacement of [3H]PK11195 from TSPO in rat kidney mitochondrial membrane
[1] = system: GABA-A receptor, central benzodiazepine site (Rattus norvegicus); test: Displacement of [3H]flumazenil from central benzodiazepine site of GABA-A receptor in rat cerebral cortex membrane after 90 mins
Plasma = test: Fraction unbound in monkey plasma at 0.155 to 0.859 nmol/kg, iv by PET analysis; format: ADME, organism-based, Macaca mulatta; conditions: rhesus monkey, in vivo
[2] = Drug level in monkey putamen at 0.155 to 0.859 nmol/kg, iv after 40 mins; format: ADME, organism-based, Macaca mulatta; conditions: rhesus monkey, in vivo

Chain of Translocator protein (P16257 whole entry, looked up): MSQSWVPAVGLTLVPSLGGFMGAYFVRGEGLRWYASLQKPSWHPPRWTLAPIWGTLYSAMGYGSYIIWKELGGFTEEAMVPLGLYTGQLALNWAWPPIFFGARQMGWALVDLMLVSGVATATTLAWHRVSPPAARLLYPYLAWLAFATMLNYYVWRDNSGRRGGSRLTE

| Ki (Translocator protein) [nM] | Activity [1] | Fu (Plasma) [%] | SUV [2] | Compound |
| --- | --- | --- | --- | --- |
| 0.3 | inactive |  |  | CCCCN(CCCC)C(=O)C(=O)c1c(-c2ccccc2)n(C)c2ccccc12 |
| 19.8 | inactive |  |  | CCCN(CCC)C(=O)C(=O)c1c(-c2ccc(F)cc2)n(C)c2ccccc12 |
| 1.07 | inactive |  |  | CCCCCCN(CCCCCC)C(=O)C(=O)c1c(-c2ccc(F)cc2)n(C)c2ccccc12 |
| 190 | inactive |  |  | CCCCN(C)C(=O)C(=O)c1c(-c2ccccc2)n(C)c2ccccc12 |
| 5.7 |  |  |  | CCCN(CCC)C(=O)C(=O)c1c(-c2ccc([N+](=O)[O-])cc2)n(C)c2ccccc12 |
| 19.5 | inactive |  |  | CCCN(CCC)C(=O)C(=O)c1c(-c2ccccc2)n(C)c2ccccc12 |
|  | inactive |  |  | CCCCN(CCCC)C(=O)C(=O)c1c(-c2ccccc2)[nH]c2ccccc12 |
|  | inactive |  |  | CCCN(CCC)C(=O)C(=O)c1c(-c2ccc(F)cc2)[nH]c2ccccc12 |
|  | inactive |  |  | CCCCCCN(CCCCCC)C(=O)C(=O)c1c(-c2ccccc2)[nH]c2ccccc12 |
|  |  | 0.71 | 2.32 | CCCN(CCC)C(=O)C(=O)c1c(-c2cc[11c]([N+](=O)[O-])cc2)n(C)c2ccccc12 |
| 0.299 | inactive |  |  | CCCCCCN(CCCCCC)C(=O)C(=O)c1c(-c2ccccc2)n(C)c2ccccc12 |
|  | inactive |  |  | CCCCCCN(CCCCCC)C(=O)C(=O)c1c(-c2ccc(F)cc2)[nH]c2ccccc12 |
| 60.2 | inactive |  |  | CCCCN(CC)C(=O)C(=O)c1c(-c2ccccc2)n(C)c2ccccc12 |
| 23.7 | inactive |  |  | CCCN(CCC)C(=O)C(=O)c1c(-c2ccccc2)n(C)c2ccc(F)cc12 |

Continued, molecule first:

| Compound | Ki (Translocator protein) [nM] | Activity [1] | Fu (Plasma) [%] | SUV [2] |
| --- | --- | --- | --- | --- |
| CCCN(CCC)C(=O)C(=O)c1c(-c2ccccc2)[nH]c2ccc(F)cc12 |  | inactive |  |  |
| CN(Cc1ccccc1)C(=O)C(=O)c1c(-c2ccccc2)[nH]c2ccccc12 | 12 | inactive |  |  |
| CN(Cc1ccccc1)C(=O)C(=O)c1c(-c2ccc(F)cc2)[nH]c2ccccc12 | 1.8 | inactive |  |  |
| CCN(Cc1ccccc1)C(=O)C(=O)c1c(-c2ccccc2)n(C)c2ccccc12 | 2.92 | inactive |  |  |
| CCCN(CCC)C(=O)C(=O)c1c(-c2ccccc2)[nH]c2ccccc12 |  | inactive |  |  |
| CN(Cc1ccccc1)C(=O)C(=O)c1c(-c2ccc(F)cc2)n(C)c2ccccc12 | 6.77 | inactive |  |  |
| CCCCN(C)C(=O)C(=O)c1c(-c2ccccc2)[nH]c2ccccc12 |  | inactive |  |  |
| CN(Cc1ccccc1)C(=O)C(=O)c1c(-c2ccccc2)n(C)c2ccccc12 | 20.9 | inactive |  |  |
| CCCCCN(C)C(=O)C(=O)c1c(-c2ccccc2)[nH]c2ccccc12 |  | inactive |  |  |
| CCN(Cc1ccccc1)C(=O)C(=O)c1c(-c2ccccc2)[nH]c2ccccc12 |  | inactive |  |  |
| CCCCN(CC)C(=O)C(=O)c1c(-c2ccccc2)[nH]c2ccccc12 |  | inactive |  |  |
| CCCCCN(C)C(=O)C(=O)c1c(-c2ccccc2)n(C)c2ccccc12 | 38.2 | inactive |  |  |

From ChEMBL document CHEMBL1649086, “Evaluation of novel N1-methyl-2-phenylindol-3-ylglyoxylamides as a new chemotype of 18 kDa translocator protein-selective ligand suitable for the development of positron emission tomography radioligands” (J Med Chem, 2011)
